Measurements: patent US20210113522A1, “COUMARIN DERIVATIVE AS ANTI-ASTHMATIC AGENT, PHARMACEUTICAL COMPOSITION THEREOF, ITS PREPARATION AND USE” (I-NOVA MEDICINSKA ISTRAZIVANJA D.O.O., priority 2017, published 2021)

Key:
IL-5 = test: OVA model: IL-5 immunohistochemistry of lung sections; format: in vivo, Balb/c mice; settings: OVA-sensitised mice; both compound 1 groups 2 mg/kg, beclomethasone 1 mg/kg
Procedure: To investigate the treatment effect of compound 1, immunohistology from serial lung sections was performed 2 days after i.n. challenge in experimental mice that were treated with the compound 1 or beclomethasone as standard antiinflammatory and anti-asthmatic API.
• (1) Wash Buffer: T-PBS (0.1M, pH 7.4, 0.05% Tween 20); • (2) Blocking/Incubation Buffer: 1% bovine serum albumin, 0.1% Cold Fish Skin Gelatin, 0.5% Triton® X-100, 0.1 M PBS (pH 7.4); • (3) Peroxidase Blocking Solution (3% H2O2 in water); • (4) EDTA Antigen Retrieval Buffer (1 mM EDTA, 0.05% Tween 20, pH 8.0); • (5) Primary antibodies: • Rabbit anti-mouse IL-5 (Cat. #ABIN446956; Antibodies-Online GmbH, Schloss-Rahe-Str. 1552072 Aachen, Germany); • Rat anti-mouse CCL11 (Cat. #MAB420; R&D Systems, Inc., 614 McKinley Place Nebr., Minneapolis, Minn. 55413); • (6) Secondary antibodies: • Goat anti-rabbit IgG (H+L)-HRP (cat. #31466; Thermo Fisher Scientific, 168 Third Avenue Waltham, Mass. USA 02451); • Goat anti-rat IgG (H+L)—HRP (cat. #62-9520; Thermo Fisher Scientific, 168 Third Avenue Waltham, Mass. USA 02451); • (7) Pierce DAB Substrate Kit (DAB (10×), 25 mL; Stable Peroxide Buffer, 250 mL) (Catalog #34002; Thermo Fisher Scientific, 168 Third Avenue Waltham, Mass. […]

CCL11 (eotaxin) = test: OVA model: CCL11 (eotaxin) immunohistochemistry of lung sections; format: in vivo, Balb/c mice; settings: OVA-challenged mice; 1 2 mg/kg, beclomethasone 1 mg/kg
Procedure: • (1) Wash Buffer: T-PBS (0.1M, pH 7.4, 0.05% Tween 20); • (2) Blocking/Incubation Buffer: 1% bovine serum albumin, 0.1% Cold Fish Skin Gelatin, 0.5% Triton® X-100, 0.1 M PBS (pH 7.4); • (3) Peroxidase Blocking Solution (3% H2O2 in water); • (4) EDTA Antigen Retrieval Buffer (1 mM EDTA, 0.05% Tween 20, pH 8.0); • (5) Primary antibodies: • Rabbit anti-mouse IL-5 (Cat. #ABIN446956; Antibodies-Online GmbH, Schloss-Rahe-Str. 1552072 Aachen, Germany); • Rat anti-mouse CCL11 (Cat. #MAB420; R&D Systems, Inc., 614 McKinley Place Nebr., Minneapolis, Minn. 55413); • (6) Secondary antibodies: • Goat anti-rabbit IgG (H+L)-HRP (cat. #31466; Thermo Fisher Scientific, 168 Third Avenue Waltham, Mass. USA 02451); • Goat anti-rat IgG (H+L)—HRP (cat. #62-9520; Thermo Fisher Scientific, 168 Third Avenue Waltham, Mass. USA 02451); • (7) Pierce DAB Substrate Kit (DAB (10×), 25 mL; Stable Peroxide Buffer, 250 mL) (Catalog #34002; Thermo Fisher Scientific, 168 Third Avenue Waltham, Mass. USA 02451); • (8) Hematoxylin Counterstain (Cat #GHS216; Sigma-Aldrich Chemie GmbH, Eschenstrasse 5, 82024 Taufkirchen, Germany); • (9) Vitro-Clud 500 Mounting Medium (Catalog #A20500; Deltalab; Plz. Verneda 1, Pol Ind La Llana 08191 Rubí Barcelona Spain). […]

Row | SMILES | IL-5 expression in lung sections (IL-5) | CCL11 (eotaxin) levels in lung sections (CCL11 (eotaxin))
1 | O=c1oc2cc(O)cc(O)c2c(O)c1-c1coc2c1c(=O)oc1cc(O)cc(O)c12 [Compound 1, 7,9-dihydroxy-3-(4,5,7-trihydroxy-2-oxo-2H-chromene-3-yl)-4H-furo[3,2-c]chromen-4-one] | no IL-5 expression | reduced to background
2 | C[C@H]1C[C@H]2[C@@H]3CCC4=CC(=O)C=C[C@]4(C)[C@@]3(Cl)[C@@H](O)C[C@]2(C)[C@@]1(O)C(=O)CO [beclomethasone, reference compound] | moderate result | reduced to background
